From PubChem BioAssay AID2060512 (Molecular Pharmacology Branch, DTP, NCI, 2025)
pIC50: −log10 of the molar value. Values belong to the molecule of their own block, whether it stands above or below them.

System: 186277-243-T-J2-PDC complex spheroid viability
Assay: Anticancer human tumor 186277-243-T-J2-PDC patient-derived colon adenocarcinoma cell line growth inhibition [GQUAD]
Conditions: for pIC50: curve of first compound; for viability, T/C: stronger effect = lower value
Description: DNA G-quadruplex Stabilizer Agents in Combinations in Complex Spheroids
A high-throughput screen of multi-cell type tumor spheroids was designed to identify active combinations of DNA G-quadruplex stabilizer agents and targeted small molecules. Complex spheroids include a stromal component modeled by human endothelial cells (HUVEC) and fibroblasts modeled by human mesenchymal stem cells (MSCs). The concentration ranges selected for each drug and investigational agent were based upon clinically achievable concentrations if the clinical Cmax of the agent was known.
Compounds. The drugs and investigational agents: pidnarulex (CX-5461; NSC782164), APTO-253 (NSC789042), BRACO-19 (NSC847499), peposertib (NSC802822), ceralasertib (NSC780249), elimusertib (NSC800525), camonsertib (NSC841442), AZD-1390 (NSC803789), olaparib (NSC753686), talazoparib (NSC767125), ART-558 (NSC835418), sotorasib (NSC818433), MRTX-1133 (NSC836407), SN-38 (NSC673596), topotecan (NSC609699), etoposide (NSC141540), doxorubicin (NSC123127), gemcitabine (NSC613327), 5-fluorouracil (NSC19893), paclitaxel (NSC125973), vemurafenib (NSC761431), panobinostat (NSC761190), R-306465 (JNJ-16241199; NSC773264), adavosertib (NSC754352), TP-3654 (NSC805149), carboplatin (NSC241240), KSQ-4279 (NSC840948), and staurosporine (NSC755774) were obtained from the National Cancer Institute (NCI) Developmental Therapeutics Program Chemical Repository (34). The FDA-approved anticancer drug set is available from the NCI Developmental Therapeutics Program. […] The stock solutions were prepared in dimethyl sulfoxide (DMSO, Sigma-Aldrich, St. Louis, MO, cat. D2650) at 800-fold the tested concentration and stored at -70 degrees C prior to their use. All drugs and investigational agents were tested over a range starting from a high concentration at or near the clinical Cmax and decreasing in half-log increments. If the clinical Cmax for an agent had not been determined, the highest concentration tested was 10 microM.
2.3 Cell Culture. All cells were maintained in an incubator at 37 degrees C and 5% CO2 with 95% humidity. The PDC lines were cultured according to standard operating procedures established by the NCI PDMR. All PDCs were thawed and cultured in Matrigel-coated flasks prepared with a working solution of 1X Ham's F-12 nutrient mix, without supplementation (Invitrogen, cat. 11765054), 100 U/mL penicillin-streptomycin (Invitrogen, cat. 15140122), and 2.5% Matrigel (Corning Inc., cat. 354248) for the first three passages. The 857933-349-R-J2-PDC line was cultured in 6C/Colon 1B media, which includes advanced DMEM/F-12 (Thermo Fisher Scientific, cat. 12634028), 10 mM HEPES (Thermo Fisher Scientific, cat. 15630080), 1X GlutaMAX supplement (Thermo Fisher Scientific, cat. 35050061), 0.1 mg/mL primocin (InvivoGen, cat. ant-pm-2), 10% defined fetal bovine serum, heat inactivated (HyClone Laboratories Inc., cat. SH30070.03HI), 50% L-WRN conditioned media (ATCC, cat. CRL-3276), 1.25 mM N-Acetyl-L-cysteine (Sigma-Aldrich, cat. A9165), 10 mM nicotinamide (Sigma-Aldrich, cat. N0636), 1X B-27 supplement (Thermo Fisher Scientific, cat. 17504044), 1X N-2 supplement (Thermo Fisher Scientific, cat. 17502048), 10 microM Y-27632 dihydrochloride (Tocris Bioscience, cat. 1254), and 50 ng/mL human EGF recombinant protein (Thermo Fisher Scientific, cat. PHG0311). The 485176-168-R4-J1-PDC line was cultured in Panc media, which includes all 6C/Colon 1B media components plus 100 ng/mL human FGF-10 (Thermo Fisher Scientific, cat. 100-26), 500 nM SB-431542 (Selleckchem, cat. S1067), and gastrin (Tocris, cat. 3006).
[…]

[1] = second compound 0.0316 µM, first compound 0.0316 µM
[2] = second compound 0.0316 µM, first compound 0.316 µM
[3] = second compound 0.1 µM, first compound 0.0316 µM
[4] = second compound 0.1 µM, first compound 0.316 µM
[5] = second compound 0.316 µM, first compound 0.0316 µM
[6] = second compound 0.316 µM, first compound 0.316 µM
[7] = second compound 1 µM, first compound 0.0316 µM
[8] = second compound 1 µM, first compound 0.316 µM
[9] = second compound 3.16 µM, first compound 0.0316 µM
[10] = second compound 3.16 µM, first compound 0.316 µM
[11] = second compound 10 µM, first compound 0.0316 µM
[12] = second compound 10 µM, first compound 0.316 µM
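Note: spheroids exposed to drugs for 7 days.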
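Throughout, for viability, T/C: 100% = DMSO vehicle control viability.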

pIC50 (second compound 0.0316 µM): 8.23 | pIC50 (second compound 0.1 µM): 8.15 | pIC50 (second compound 0.316 µM): 8.40 | pIC50 (second compound 1 µM): > 9.00 | pIC50 (second compound 3.16 µM): > 9.00 | pIC50 (second compound 10 µM): > 9.00
Structure (SMILES): CCc1c2c(nc3ccc(O)cc13)-c1cc3c(c(=O)n1C2)COC(=O)[C@]3(O)CC + Cc1cnc(CNC(=O)c2c(=O)c3ccc(N4CCCN(C)CC4)nc3n3c2sc2ccccc23)cn1
viability, T/C (second compound 0.0316 µM, first compound 0.000999 µM): 90.8% | viability, T/C (second compound 0.0316 µM, first compound 0.00316 µM): 56% | viability, T/C (second compound 0.0316 µM, first compound 0.00999 µM): 46.3% | viability, T/C [1]: 27.8% | viability, T/C (second compound 0.0316 µM, first compound 0.0999 µM): 23.3% | viability, T/C [2]: 17.6% | viability, T/C (second compound 0.1 µM, first compound 0.000999 µM): 79.3% | viability, T/C (second compound 0.1 µM, first compound 0.00316 µM): 56.8% | viability, T/C (second compound 0.1 µM, first compound 0.00999 µM): 53.2% | viability, T/C [3]: 24.5% | viability, T/C (second compound 0.1 µM, first compound 0.0999 µM): 23.4% | viability, T/C [4]: 13.9% | viability, T/C (second compound 0.316 µM, first compound 0.000999 µM): 60.5% | viability, T/C (second compound 0.316 µM, first compound 0.00316 µM): 53.7% | viability, T/C (second compound 0.316 µM, first compound 0.00999 µM): 40.9% | viability, T/C [5]: 31.9% | viability, T/C (second compound 0.316 µM, first compound 0.0999 µM): 30.1% | viability, T/C [6]: 16.9% | viability, T/C (second compound 1 µM, first compound 0.000999 µM): 44.8% | viability, T/C (second compound 1 µM, first compound 0.00316 µM): 37.6% | viability, T/C (second compound 1 µM, first compound 0.00999 µM): 38.3% | viability, T/C [7]: 31.8% | viability, T/C (second compound 1 µM, first compound 0.0999 µM): 29.5% | viability, T/C [8]: 4.66% | viability, T/C (second compound 3.16 µM, first compound 0.000999 µM): 33.5% | viability, T/C (second compound 3.16 µM, first compound 0.00316 µM): 39.9% | viability, T/C (second compound 3.16 µM, first compound 0.00999 µM): 36.5% | viability, T/C [9]: 27.9% | viability, T/C (second compound 3.16 µM, first compound 0.0999 µM): 25.4% | viability, T/C [10]: 1.29% | viability, T/C (second compound 10 µM, first compound 0.000999 µM): 40.2% | viability, T/C (second compound 10 µM, first compound 0.00316 µM): 32.5% | viability, T/C (second compound 10 µM, first compound 0.00999 µM): 31.1% | viability, T/C [11]: 24.7% | viability, T/C (second compound 10 µM, first compound 0.0999 µM): 23.3% | viability, T/C [12]: 0.64%

pIC50 (second compound 0.0316 µM): < 5.00 | pIC50 (second compound 0.1 µM): < 5.00 | pIC50 (second compound 0.316 µM): < 5.00 | pIC50 (second compound 1 µM): < 5.00 | pIC50 (second compound 3.16 µM): > 7.50 | pIC50 (second compound 10 µM): > 7.50
Structure (SMILES): Cc1cccc(N(C)C(=O)C2C(O)CCN2c2nc(C)cc(C(F)(F)F)c2C#N)c1 (centres undefined) + Cc1cnc(CNC(=O)c2c(=O)c3ccc(N4CCCN(C)CC4)nc3n3c2sc2ccccc23)cn1
viability, T/C [1]: 107% | viability, T/C (second compound 0.0316 µM, first compound 0.1 µM): 110% | viability, T/C [2]: 109% | viability, T/C (second compound 0.0316 µM, first compound 1 µM): 100% | viability, T/C (second compound 0.0316 µM, first compound 3.16 µM): 102% | viability, T/C (second compound 0.0316 µM, first compound 10 µM): 117% | viability, T/C [3]: 92.8% | viability, T/C (second compound 0.1 µM, first compound 0.1 µM): 93.3% | viability, T/C [4]: 97.4% | viability, T/C (second compound 0.1 µM, first compound 1 µM): 105% | viability, T/C (second compound 0.1 µM, first compound 3.16 µM): 94.8% | viability, T/C (second compound 0.1 µM, first compound 10 µM): 78.8% | viability, T/C [5]: 73% | viability, T/C (second compound 0.316 µM, first compound 0.1 µM): 84.1% | viability, T/C [6]: 75.1% | viability, T/C (second compound 0.316 µM, first compound 1 µM): 71.7% | viability, T/C (second compound 0.316 µM, first compound 3.16 µM): 76.6% | viability, T/C (second compound 0.316 µM, first compound 10 µM): 88.5% | viability, T/C [7]: 51.6% | viability, T/C (second compound 1 µM, first compound 0.1 µM): 70.4% | viability, T/C [8]: 68.6% | viability, T/C (second compound 1 µM, first compound 1 µM): 59.5% | viability, T/C (second compound 1 µM, first compound 3.16 µM): 64.9% | viability, T/C (second compound 1 µM, first compound 10 µM): 65% | viability, T/C [9]: 42.2% | viability, T/C (second compound 3.16 µM, first compound 0.1 µM): 52.2% | viability, T/C [10]: 47.9% | viability, T/C (second compound 3.16 µM, first compound 1 µM): 47.1% | viability, T/C (second compound 3.16 µM, first compound 3.16 µM): 52.9% | viability, T/C (second compound 3.16 µM, first compound 10 µM): 51.9% | viability, T/C [11]: 45.3% | viability, T/C (second compound 10 µM, first compound 0.1 µM): 45.9% | viability, T/C [12]: 38% | viability, T/C (second compound 10 µM, first compound 1 µM): 41.6% | viability, T/C (second compound 10 µM, first compound 3.16 µM): 53.1% | viability, T/C (second compound 10 µM, first compound 10 µM): 51.4%
